Consider 21 compounds from US20130053381A1, “2,4-DIOXO-1,4-DIHYDRO-2H-QUINAZOLIN-3-YL-SULFONAMIDE DERIVATIVES” (NOVARTIS AG, priority 2010, published 2013).

One experiment concerns OF1 mice. Nature of the experiment: Maximal electroshock test (MES Test). Conditions: Mus musculus, po; 50 mg/kg, p.o., pre-treatment time −1 h; read-out: %-Protection. In kind it is in vivo. How it is done:
Compounds of the invention were tested in OF1 mice using the maximal electroshock test (MES Test) described in detail by Schmutz et al., Naunyn-Schmiedeberg's Arch Pharmacol 1990, 342, 61-66. Briefly, generalized tonic-clonic convulsions of the hind extremities were induced by passing electrical current through temporal electrodes (50 Hz, 18 mA, 0.2s). […] 30 mg/kg carbamazepine was used as a positive control; mice were classified as protected by a compound If the duration of the seizure lasted only 3 second or less. Five mice were used for each treatment condition and the percentage of protected mice was used as readout (i.e. a compound could give 0%, 20%, 40%, 60%, 80% or 100% protection). Usually, compounds of the invention or their parents were given at a dose of 50 mg/kg, p.o., 1 hour prior to induction of convulsions (i.e. “pre-treatment time −1 h”).
ED50 values (ED: effective dose) were calculated using GraphPad Prism, v4.02. after shock administration, mouse blood was collected for determination of compounds' blood exposure.
(In the maximal electroshock model the usual endpoint is tonic extension of the hind limbs.)
Turning to `CCOC(=O)CCC(=O)N(n1c(=O)[nH]c2cc(C(F)(F)F)c(-n3ccnc3)cc2c1=O)S(C)(=O)=O` [Example 4.01, 4-[(6-Imidazol-1-yl-2,4-dioxo-7-trifluoromethyl-1,4-dihydro-2H-quinazolin-3-yl)-methanesulfonyl-amino]-4-oxo-butyric acid ethyl ester], the responders at 50 mg/kg turned out to be 20%.

For the compound `CCC(OC)c1cc2c(=O)n(N(C(=O)OCCOC)S(C)(=O)=O)c(=O)[nH]c2cc1C(F)(F)F` (stereo not shown) [Example 11.01, Methanesulfonyl-[6-(1-methoxy-propyl)-2,4-dioxo-7-trifluoromethyl-1,4-dihydro-2H-quinazolin-3-yl]-carbamic acid 2-methoxy-ethyl ester], the responders at 50 mg/kg came out at 60%. Regarding `CC(=O)N(n1c(=O)[nH]c2cc(C(F)F)c(-c3ccnn3C(C)C)cc2c1=O)S(C)(=O)=O` [Example 6.01, N-Acetyl-N-[7-difluoromethyl-6-(2-isopropyl-2H-pyrazol-3-yl)-2,4-dioxo-1,4-dihydro-2H-quinazolin-3-yl]-methanesulfonamide], the responders at 50 mg/kg turned out to be 40%. As to `CCCC(=O)N(n1c(=O)[nH]c2cc(C(F)(F)F)c(-n3cccc3)cc2c1=O)S(C)(=O)=O` [Example 8.02, N-Butyryl-N-(2,4-dioxo-6-pyrrol-1-yl-7-trifluoromethyl-1,4-dihydro-2H-quinazolin-3-yl)-methanesulfonamide], the responders at 50 mg/kg is 20%. `CCCCC(=O)N(n1c(=O)[nH]c2cc(CC)c(-c3ccnn3C)cc2c1=O)S(C)(=O)=O` [Example 2.11, N-[7-Ethyl-6-(2-methyl-2H-pyrazol-3-yl)-2,4-dioxo-1,4-dihydro-2H-quinazolin-3-yl]-N-pentanoyl-methanesulfonamide]: the responders at 50 mg/kg was 100%.

Regarding `CCCCCC(=O)N(n1c(=O)[nH]c2cc(C(F)(F)F)c(-c3ccnn3C)cc2c1=O)S(C)(=O)=O` [Example 1.04, N-Hexanoyl-N-[6-(2-methyl-2H-pyrazol-3-yl)-2,4-dioxo-7-trifluoromethyl-1,4-dihydro-2H-quinazolin-3-yl]-methanesulfonamide], the responders at 50 mg/kg is 80%.

In the case of `CCCCOC(=O)N(n1c(=O)[nH]c2cc(C(C)C)c(-c3ccnn3C)cc2c1=O)S(C)(=O)=O` [Example 3.21, [7-Isopropyl-6-(2-methyl-2H-pyrazol-3-yl)-2,4-dioxo-1,4-dihydro-2H-quinazolin-3-yl]-methanesulfonyl-carbamic acid butyl ester], the responders at 50 mg/kg was determined as 100%. For the compound `CCCCOC(=O)N(n1c(=O)[nH]c2cc(C(F)(F)F)c(C(CC)OC)cc2c1=O)S(C)(=O)=O` (stereo not shown) [Example 11.11, Methanesulfonyl-[6-(1-methoxy-propyl)-2,4-dioxo-7-trifluoromethyl-1,4-dihydro-2H-quinazolin-3-yl]-carbamic acid butyl ester], the responders at 50 mg/kg came out at 60%.

On to `CCCC(=O)N(n1c(=O)[nH]c2cc(C(F)(F)F)c(C(O)CC)cc2c1=O)S(C)(=O)=O` (stereo not shown) [Example 12.03, N-Butyryl-N-[6-(1-hydroxy-propyl)-2,4-dioxo-7-trifluoromethyl-1,4-dihydro-2H-quinazolin-3-yl]-methanesulfonamide], for which the responders at 50 mg/kg turned out to be 40%. For the compound `CCCCCCOC(=O)N(n1c(=O)[nH]c2cc(C(F)(F)F)c(C(CC)OC)cc2c1=O)S(C)(=O)=O` (stereo not shown) [Example 11.13, Methanesulfonyl-[6-(1-methoxy-propyl)-2,4-dioxo-7-trifluoromethyl-1,4-dihydro-2H-quinazolin-3-yl]-carbamic acid hexyl ester], the responders at 50 mg/kg turned out to be 60%. With `CCC(=O)N(n1c(=O)[nH]c2cc(C(F)(F)F)c(C(CC)OC)cc2c1=O)S(C)(=O)=O` (stereo not shown) [Example 11.02, N-[6-(1-Methoxy-propyl)-2,4-dioxo-7-trifluoromethyl-1,4-dihydro-2H-quinazolin-3-yl]-N-propionyl-methanesulfonamide], the responders at 50 mg/kg amounted to 100%. The same measure, in the same setting: as for `CCOC(=O)CCCC(=O)N(n1c(=O)[nH]c2cc(C(F)(F)F)c(-c3ccnn3C(C)C)cc2c1=O)S(C)(=O)=O` [Example 5.11, 5-{[6-(2-Isopropyl-2H-pyrazol-3-yl)-2,4-dioxo-7-trifluoromethyl-1,4-dihydro-2H-quinazolin-3-yl]-methanesulfonyl-amino}-5-oxo-pentanoic acid ethyl ester], the figure is 40%.

In the case of `CCCCOC(=O)N(n1c(=O)[nH]c2cc(C(F)(F)F)c(-c3ccnn3C(C)C)cc2c1=O)S(C)(=O)=O` [Example 5.08, [6-(2-Isopropyl-2H-pyrazol-3-yl)-2,4-dioxo-7-trifluoromethyl-1,4-dihydro-2H-quinazolin-3-yl]-methanesulfonyl-carbamic acid butyl ester], the responders at 50 mg/kg came to 100%.

Consider `COC(=O)n1c(=O)n(N(C(C)=O)S(C)(=O)=O)c(=O)c2cc(-c3ccnn3C)c(C(C)C)cc21` [Example 3.36, 3-(Acetyl-methanesulfonyl-amino)-7-isopropyl-6-(2-methyl-2H-pyrazol-3-yl)-2,4-dioxo-3,4-dihydro-2H-quinazoline-1-carboxylic acid methyl ester], for which the responders at 50 mg/kg was 100%.

The experiment is the same for the next values; noted with them: Mus musculus, po; Dose: 25 mg/kg, p.o. (footnote b), pre-treatment time −1 h; read-out: %-Protection.
`CC(=O)N(n1c(=O)[nH]c2cc(C(F)F)c(-c3ccnn3C(C)C)cc2c1=O)S(C)(=O)=O` [Example 6.01, N-Acetyl-N-[7-difluoromethyl-6-(2-isopropyl-2H-pyrazol-3-yl)-2,4-dioxo-1,4-dihydro-2H-quinazolin-3-yl]-methanesulfonamide]: the responders at 25 mg/kg stood at 20%.

Still in this experiment, the particulars now being: Mus musculus; dose of up to 50 mg/kg, p.o., 1 hour prior to induction of convulsions; read-out: %-Protection.
As to `COC(=O)N(n1c(=O)[nH]c2cc(C(F)(F)F)c(-c3ccnn3C(C)C)cc2c1=O)S(C)(=O)=O` [[6-(2-Isopropyl-2H-pyrazol-3-yl)-2,4-dioxo-7-trifluoromethyl-1,4-dihydro-2H-quinazolin-3-yl]-methanesulfonyl-carbamic acid methyl ester], the responders at 50 mg/kg amounted to 0%. Same read-out and setting: then `CCc1cc2[nH]c(=O)n(N(C(C)=O)S(C)(=O)=O)c(=O)c2cc1-c1ccnn1CC` [N-Acetyl-N-[7-ethyl-6-(2-ethyl-2H-pyrazol-3-yl)-2,4-dioxo-1,4-dihydro-2H-quinazolin-3-yl]-methanesulfonamide], with 0%; and `CCCCCCOC(=O)N(n1c(=O)[nH]c2cc(CC)c(-c3ccnn3C)cc2c1=O)S(C)(=O)=O` [Methanesulfonyl-[7-ethyl-6-(2-methyl-2H-pyrazol-3-yl)-2,4-dioxo-1,4-dihydro-2H-quinazolin-3-yl]carbamic acid hexyl ester], with 0%. `CC(C)CC(=O)N(n1c(=O)[nH]c2cc(C(C)C)c(-c3ccnn3C)cc2c1=O)S(C)(=O)=O` [N-[7-Isopropyl-6-(2-methyl-2H-pyrazol-3-yl)-2,4-dioxo-1,4-dihydro-2H-quinazolin-3-yl]-N-(3-methyl-butyryl)-methanesulfonamide]: the responders at 50 mg/kg amounted to 0%. Take `CCCCC(=O)N(n1c(=O)[nH]c2cc(C(F)F)c(-c3ccnn3CC)cc2c1=O)S(C)(=O)=O` [N-[7-Difluoromethyl-6-(2-ethyl-2H-pyrazol-3-yl)-2,4-dioxo-1,4-dihydro-2H-quinazolin-3-yl]-N-pentanoyl-methanesulfonamide]: the responders at 50 mg/kg is 0%. With `CCn1nccc1-c1cc2c(=O)n(N(C(=O)CCSC)S(C)(=O)=O)c(=O)[nH]c2cc1C(F)(F)F` [N-[6-(2-Ethyl-2H-pyrazol-3-yl)-2,4-dioxo-7-trifluoromethyl-1,4-dihydro-2H-quinazolin-3-yl]-N-(3-methylsulfanyl-propionyl)-methanesulfonamide], the responders at 50 mg/kg was determined as 0%. As to `CCCCOC(=O)N(n1c(=O)[nH]c2cc(C(F)F)c(-c3ccnn3C(C)C)cc2c1=O)S(C)(=O)=O` [[7-Difluoromethyl-6-(2-isopropyl-2H-pyrazol-3-yl)-2,4-dioxo-1,4-dihydro-2H-quinazolin-3-yl]-methanesulfonyl-carbamic acid butyl ester], the responders at 50 mg/kg came out at 0%.
